Source: the supplement of paper PMC10307832

Columns and labels:
Assay in all cases: relative viability (nuclei count vs DMSO), 5 days (fraction); higher = more cells survive
Everolimus + Phenformin = compound: CO[C@H]1C[C@@H]2CC[C@@H](C)[C@@](O)(O2)C(=O)C(=O)N2CCCC[C@H]2C(=O)O[C@H]([C@H](C)C[C@@H]2CC[C@@H](OCCO)[C@H](OC)C2)CC(=O)[C@H](C)/C=C(\C)[C@@H](O)[C@@H](OC)C(=O)[C@H](C)C[C@H](C)/C=C/C=C/C=C/1C [Everolimus] + N=C(N)NC(=N)NCCc1ccccc1 [Phenformin] (partner 250 µM)
Procedure, shortened: (§1)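 Relative viability divides the nuclei count in treated wells by that in vehicle wells. Lung cancer cell lines were seeded in 1536-well plates, dosed by pin tool the next day, and fixed and stained after 5 days in one step with final 0.05% Triton X-100, 1% formaldehyde and 1 ug/ml Hoechst. Dosing was a single drug or a fixed anchor-drug dose plus five library-drug doses (not always all listed) in √10 steps, and values are medians of duplicate plates imaged at 4×.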

Everolimus + AZD7762 = compound: CO[C@H]1C[C@@H]2CC[C@@H](C)[C@@](O)(O2)C(=O)C(=O)N2CCCC[C@H]2C(=O)O[C@H]([C@H](C)C[C@@H]2CC[C@@H](OCCO)[C@H](OC)C2)CC(=O)[C@H](C)/C=C(\C)[C@@H](O)[C@@H](OC)C(=O)[C@H](C)C[C@H](C)/C=C/C=C/C=C/1C [Everolimus] + NC(=O)Nc1cc(-c2cccc(F)c2)sc1C(=O)N[C@H]1CCCNC1 [AZD7762] (partner 0.2 µM)
Procedure, shortened: as §1

Everolimus + Pictilisib = compound: CO[C@H]1C[C@@H]2CC[C@@H](C)[C@@](O)(O2)C(=O)C(=O)N2CCCC[C@H]2C(=O)O[C@H]([C@H](C)C[C@@H]2CC[C@@H](OCCO)[C@H](OC)C2)CC(=O)[C@H](C)/C=C(\C)[C@@H](O)[C@@H](OC)C(=O)[C@H](C)C[C@H](C)/C=C/C=C/C=C/1C [Everolimus] + CS(=O)(=O)N1CCN(Cc2cc3nc(-c4cccc5[nH]ncc45)nc(N4CCOCC4)c3s2)CC1 [Pictilisib] (partner 1 µM)
Procedure, shortened: as §1

Everolimus + Alpelisib = compound: CO[C@H]1C[C@@H]2CC[C@@H](C)[C@@](O)(O2)C(=O)C(=O)N2CCCC[C@H]2C(=O)O[C@H]([C@H](C)C[C@@H]2CC[C@@H](OCCO)[C@H](OC)C2)CC(=O)[C@H](C)/C=C(\C)[C@@H](O)[C@@H](OC)C(=O)[C@H](C)C[C@H](C)/C=C/C=C/C=C/1C [Everolimus] + Cc1nc(NC(=O)N2CCC[C@H]2C(N)=O)sc1-c1ccnc(C(C)(C)C(F)(F)F)c1 [Alpelisib] (partner 2 µM)
Procedure, shortened: as §1

| Cell Line | relative viability (Everolimus + Phenformin; first compound 0.01 µM) | relative viability (Everolimus + Phenformin; first compound 0.03162 µM) | relative viability (Everolimus + Phenformin; first compound 0.3162 µM) | relative viability (Everolimus + Phenformin; first compound 1 µM) | relative viability (Everolimus + AZD7762; first compound 0.01 µM) | relative viability (Everolimus + AZD7762; first compound 0.03162 µM) | relative viability (Everolimus + AZD7762; first compound 0.1 µM) | relative viability (Everolimus + AZD7762; first compound 0.3162 µM) | relative viability (Everolimus + AZD7762; first compound 1 µM) | relative viability (Everolimus + Pictilisib; first compound 0.01 µM) | relative viability (Everolimus + Pictilisib; first compound 0.03162 µM) | relative viability (Everolimus + Pictilisib; first compound 0.1 µM) | relative viability (Everolimus + Pictilisib; first compound 0.3162 µM) | relative viability (Everolimus + Pictilisib; first compound 1 µM) | relative viability (Everolimus + Alpelisib; first compound 0.01 µM) | relative viability (Everolimus + Alpelisib; first compound 0.03162 µM) | relative viability (Everolimus + Alpelisib; first compound 0.1 µM) | relative viability (Everolimus + Alpelisib; first compound 0.3162 µM) | relative viability (Everolimus + Alpelisib; first compound 1 µM) | relative viability (Everolimus + Phenformin; first compound 0.1 µM) |
| --- | --- | --- | --- | --- | --- | --- | --- | --- | --- | --- | --- | --- | --- | --- | --- | --- | --- | --- | --- | --- |
| HARA | 0.412 | 0.489 | 0.419 | 0.466 | 0.15 | 0.335 | 0.223 | 0.309 | 0.252 | 0.236 | 0.278 | 0.227 | 0.228 | 0.238 | 0.564 | 0.457 | 0.499 | 0.507 | 0.412 | – |
| HCC-15 | 0.465 | 0.474 | 0.497 | 0.471 | 1.37 | 1.26 | 1.33 | 1.24 | 1.48 | 0.633 | 0.517 | 0.372 | 0.539 | 0.545 | 0.763 | 0.678 | 0.685 | 0.608 | 0.605 | 0.459 |
| IA-LM | – | – | – | – | – | – | – | – | – | 0.211 | 0.162 | 0.137 | 0.158 | 0.104 | 0.185 | 0.334 | 0.27 | 0.149 | 0.288 | – |
| NCI-H520 | 0.242 | 0.255 | 0.207 | 0.244 | – | – | – | – | – | 0.186 | 0.197 | 0.204 | 0.185 | 0.165 | 0.434 | 0.474 | 0.335 | 0.296 | 0.257 | 0.242 |
| NCI-H522 | 0.588 | 0.527 | 0.51 | 0.503 | 0.622 | 0.64 | 0.579 | 0.651 | 0.686 | – | – | – | – | – | – | – | – | – | – | 0.549 |
| NCI-H661 | 0.253 | 0.259 | 0.271 | 0.281 | – | – | – | – | – | 0.301 | 0.253 | 0.235 | 0.305 | 0.296 | 0.438 | 0.345 | 0.35 | 0.383 | 0.309 | 0.258 |
| NCI-H1299 | – | – | – | – | – | – | – | – | – | 0.54 | 0.537 | 0.512 | 0.386 | 0.528 | 1.04 | 1.09 | 1.01 | 1.06 | 1.06 | – |
| NCI-H1563 | 0.658 | 0.661 | 0.657 | 0.592 | – | – | – | – | – | 0.664 | 0.672 | 0.632 | 0.676 | 0.646 | 0.715 | 0.717 | 0.662 | 0.641 | 0.685 | 0.657 |
| NCI-H1648 | – | – | – | – | 0.622 | 0.634 | 0.631 | 0.735 | 1.02 | – | – | – | – | – | – | – | – | – | – | – |
| NCI-H1650 | 0.36 | 0.372 | 0.392 | 0.417 | – | – | – | – | – | 0.47 | 0.473 | 0.477 | 0.515 | 0.469 | – | – | – | – | – | 0.46 |
| NCI-H1703 | – | – | – | – | – | – | – | 0.132 | 0.121 | 0.208 | 0.24 | 0.306 | 0.228 | 0.25 | 0.213 | 0.22 | 0.29 | 0.239 | 0.338 | – |
| NCI-H2009 | 0.427 | 0.464 | 0.451 | 0.402 | – | – | – | – | – | 0.565 | 0.591 | 0.394 | 0.673 | 0.504 | 0.763 | 0.741 | 0.791 | 0.846 | 0.906 | 0.421 |
| NCI-H2023 | 0.309 | 0.375 | 0.277 | 0.266 | – | – | – | – | – | 0.164 | 0.144 | 0.135 | 0.174 | 0.111 | 0.411 | 0.326 | 0.302 | 0.271 | 0.215 | 0.343 |
| NCI-H2228 | 0.214 | 0.194 | 0.291 | 0.187 | – | – | – | – | – | 0.28 | 0.206 | 0.209 | 0.289 | 0.243 | 0.463 | 0.431 | 0.418 | 0.385 | 0.266 | 0.172 |
| NCI-H2342 | 0.436 | 0.34 | 0.411 | 0.49 | 0.394 | 0.331 | 0.382 | 0.376 | 0.461 | – | – | – | – | – | – | – | – | – | – | 0.352 |
| SK-LU-1 | 0.306 | 0.323 | 0.369 | 0.342 | – | – | – | – | – | 0.296 | 0.307 | 0.289 | 0.341 | 0.345 | 0.46 | 0.471 | 0.565 | 0.555 | 0.661 | 0.291 |
| SK-MES-1 | 0.55 | 0.583 | 0.552 | 0.545 | – | – | – | – | – | 0.281 | 0.243 | 0.265 | 0.236 | 0.215 | 0.486 | 0.461 | – | 0.44 | 0.368 | 0.574 |
| SW 900 | 0.43 | 0.492 | 0.324 | 0.45 | 0.362 | 0.33 | 0.285 | 0.36 | 0.427 | – | – | – | – | – | – | – | – | – | – | 0.371 |
| SW 1573 | 0.205 | 0.238 | 0.182 | 0.12 | – | – | – | – | – | 0.303 | 0.341 | 0.28 | 0.304 | 0.249 | 0.449 | 0.374 | 0.441 | 0.334 | 0.346 | 0.175 |
| UMC-11 | 0.281 | 0.249 | 0.294 | 0.269 | – | – | – | – | – | 0.292 | 0.273 | 0.28 | 0.299 | 0.324 | 0.348 | 0.304 | 0.301 | 0.32 | 0.311 | 0.261 |
